Laboratory results from PubChem BioAssay (NCI).
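Following 48 hours of exposure in 96-well plates, responses at five concentrations were used to interpolate endpoints linearly. TGI: concentration producing complete growth inhibition.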

How the values were obtained:
Assay in all cases: NCI tumour cell line growth inhibition, 48 h
786-0 renal = test system: 786-0 renal
A498 renal = test system: A498 renal
A549 NSCLC = test system: A549 NSCLC
ACHN renal = test system: ACHN renal
CCRF-CEM leukemia = test system: CCRF-CEM leukemia
COLO 205 colon = test system: COLO 205 colon
DLD-1 colon = test system: DLD-1 colon
DMS 114 small cell lung = test system: DMS 114 small cell lung
DMS 273 small cell lung = test system: DMS 273 small cell lung
EKVX NSCLC = test system: EKVX NSCLC
HCC-2998 colon = test system: HCC-2998 colon
HCT-116 colon = test system: HCT-116 colon
HCT-15 colon = test system: HCT-15 colon
HL-60(TB) leukemia = test system: HL-60(TB) leukemia
HOP-18 NSCLC = test system: HOP-18 NSCLC
HOP-62 NSCLC = test system: HOP-62 NSCLC
HOP-92 NSCLC = test system: HOP-92 NSCLC
HT29 colon = test system: HT29 colon
IGROV1 ovarian = test system: IGROV1 ovarian
K-562 leukemia = test system: K-562 leukemia
KM12 colon = test system: KM12 colon
KM20L2 colon = test system: KM20L2 colon
LOX IMVI melanoma = test system: LOX IMVI melanoma
LXFL 529 NSCLC = test system: LXFL 529 NSCLC
M14 melanoma = test system: M14 melanoma
M19-MEL melanoma = test system: M19-MEL melanoma
MALME-3M melanoma = test system: MALME-3M melanoma
MOLT-4 leukemia = test system: MOLT-4 leukemia
NCI-H226 lung = test system: NCI-H226 lung
NCI-H23 lung = test system: NCI-H23 lung
NCI-H460 lung = test system: NCI-H460 lung
NCI-H522 lung = test system: NCI-H522 lung
OVCAR-3 ovarian = test system: OVCAR-3 ovarian
OVCAR-4 ovarian = test system: OVCAR-4 ovarian
OVCAR-5 ovarian = test system: OVCAR-5 ovarian
OVCAR-8 ovarian = test system: OVCAR-8 ovarian
RPMI-8226 leukemia = test system: RPMI-8226 leukemia
RXF 393 renal = test system: RXF 393 renal
SF-268 CNS = test system: SF-268 CNS
SF-295 CNS = test system: SF-295 CNS
SF-539 CNS = test system: SF-539 CNS
SK-MEL-2 melanoma = test system: SK-MEL-2 melanoma
SK-MEL-28 melanoma = test system: SK-MEL-28 melanoma
SK-MEL-5 melanoma = test system: SK-MEL-5 melanoma
SK-OV-3 ovarian = test system: SK-OV-3 ovarian
SN12C renal = test system: SN12C renal
SNB-19 CNS = test system: SNB-19 CNS
SNB-75 CNS = test system: SNB-75 CNS
SNB-78 CNS = test system: SNB-78 CNS
SR leukemia = test system: SR leukemia
SW-620 colon = test system: SW-620 colon
TK-10 renal = test system: TK-10 renal
U251 CNS = test system: U251 CNS
UACC-257 melanoma = test system: UACC-257 melanoma
UACC-62 melanoma = test system: UACC-62 melanoma
UO-31 renal = test system: UO-31 renal
XF 498 CNS = test system: XF 498 CNS
CAKI-1 renal = test system: CAKI-1 renal

## N#CC1(C#N)C2C=CC(c3coc4cccc2c34)C1(C#N)C#N (stereo not given)
786-0 renal
  TGI: 34.8 µM
A498 renal
  TGI: 34.6 µM
A549 NSCLC
  TGI: 37.5 µM
ACHN renal
  TGI: 17 µM
CCRF-CEM leukemia
  TGI: 6.71 µM
COLO 205 colon
  TGI: 4.4 µM
DLD-1 colon
  TGI: 4.17 µM
DMS 114 small cell lung
  TGI: 9.98 µM
DMS 273 small cell lung
  TGI: 31.6 µM
EKVX NSCLC
  TGI: 33 µM
HCC-2998 colon
  TGI: 30 µM
HCT-116 colon
  TGI: 6.08 µM
HCT-15 colon
  TGI: 19.2 µM
HL-60(TB) leukemia
  TGI: 3.44 µM
HOP-18 NSCLC
  TGI: 30.4 µM
HOP-62 NSCLC
  TGI: 46.5 µM
HOP-92 NSCLC
  TGI: 35 µM
HT29 colon
  TGI: 41.6 µM
IGROV1 ovarian
  TGI: 35.9 µM
K-562 leukemia
  TGI: 6.22 µM
KM12 colon
  TGI: 33.8 µM
KM20L2 colon
  TGI: 35.5 µM
LOX IMVI melanoma
  TGI: 28.7 µM
LXFL 529 NSCLC
  TGI: 21.2 µM
M14 melanoma
  TGI: 25.3 µM
M19-MEL melanoma
  TGI: 8.86 µM
MALME-3M melanoma
  TGI: 18.8 µM
MOLT-4 leukemia
  TGI: 6.35 µM
NCI-H226 lung
  TGI: 34.3 µM
NCI-H23 lung
  TGI: 36.9 µM
NCI-H460 lung
  TGI: 37.4 µM
NCI-H522 lung
  TGI: 3.4 µM
OVCAR-3 ovarian
  TGI: 29.9 µM
OVCAR-4 ovarian
  TGI: 47.9 µM
OVCAR-5 ovarian
  TGI: 30.8 µM
OVCAR-8 ovarian
  TGI: 10.4 µM
RPMI-8226 leukemia
  TGI: 19.9 µM
RXF 393 renal
  TGI: 9.66 µM
SF-268 CNS
  TGI: 20.3 µM
SF-295 CNS
  TGI: 42.8 µM
SF-539 CNS
  TGI: 35.2 µM
SK-MEL-2 melanoma
  TGI: 92.6 µM
SK-MEL-28 melanoma
  TGI: 10.8 µM
SK-MEL-5 melanoma
  TGI: 28.8 µM
SK-OV-3 ovarian
  TGI: 31.7 µM
SN12C renal
  TGI: 23.2 µM
SNB-19 CNS
  TGI: 33.8 µM
SNB-75 CNS
  TGI: 35.3 µM
SNB-78 CNS
  TGI: 43.1 µM
SR leukemia
  TGI: 7.83 µM
SW-620 colon
  TGI: 3.32 µM
TK-10 renal
  TGI: 18.6 µM
U251 CNS
  TGI: 33.9 µM
UACC-257 melanoma
  TGI: 23.1 µM
UACC-62 melanoma
  TGI: 24.4 µM
UO-31 renal
  TGI: 25.6 µM
XF 498 CNS
  TGI: 15.3 µM

## CCOC(=O)c1cnc2c(ccc3ncccc32)c1NCCCN(CC)CC
786-0 renal
  TGI: > 100 µM
A498 renal
  TGI: > 100 µM
A549 NSCLC
  TGI: > 100 µM
ACHN renal
  TGI: > 100 µM
CAKI-1 renal
  TGI: > 100 µM
CCRF-CEM leukemia
  TGI: > 100 µM
COLO 205 colon
  TGI: > 100 µM
DLD-1 colon
  TGI: > 100 µM
DMS 273 small cell lung
  TGI: > 100 µM
EKVX NSCLC
  TGI: > 100 µM
HCC-2998 colon
  TGI: > 100 µM
HCT-15 colon
  TGI: > 100 µM
HL-60(TB) leukemia
  TGI: 38.4 µM
HOP-18 NSCLC
  TGI: > 100 µM
HOP-62 NSCLC
  TGI: > 100 µM
HOP-92 NSCLC
  TGI: > 100 µM
HT29 colon
  TGI: > 100 µM
IGROV1 ovarian
  TGI: > 100 µM
K-562 leukemia
  TGI: > 100 µM
KM12 colon
  TGI: > 100 µM
KM20L2 colon
  TGI: > 100 µM
LOX IMVI melanoma
  TGI: 33.6 µM
LXFL 529 NSCLC
  TGI: > 100 µM
M14 melanoma
  TGI: 35.1 µM
M19-MEL melanoma
  TGI: > 100 µM
MALME-3M melanoma
  TGI: > 100 µM
MOLT-4 leukemia
  TGI: 72.2 µM
NCI-H226 lung
  TGI: > 100 µM
NCI-H23 lung
  TGI: > 100 µM
NCI-H460 lung
  TGI: > 100 µM
NCI-H522 lung
  TGI: > 100 µM
OVCAR-3 ovarian
  TGI: > 100 µM
OVCAR-4 ovarian
  TGI: > 100 µM
OVCAR-5 ovarian
  TGI: > 100 µM
RPMI-8226 leukemia
  TGI: > 100 µM
SF-268 CNS
  TGI: > 100 µM
SF-295 CNS
  TGI: > 100 µM
SK-MEL-2 melanoma
  TGI: > 100 µM
SK-MEL-28 melanoma
  TGI: > 100 µM
SK-MEL-5 melanoma
  TGI: > 100 µM
SK-OV-3 ovarian
  TGI: > 100 µM
SNB-19 CNS
  TGI: > 100 µM
SNB-78 CNS
  TGI: > 100 µM
SW-620 colon
  TGI: > 100 µM
TK-10 renal
  TGI: > 100 µM
U251 CNS
  TGI: > 100 µM
UACC-257 melanoma
  TGI: > 100 µM
UACC-62 melanoma
  TGI: > 100 µM
UO-31 renal
  TGI: > 100 µM
XF 498 CNS
  TGI: > 100 µM

## CC1(C(=O)Nc2ccc3ccccc3c2)CC2(C)CC(C)(C1)C(O)NC2=O (stereo not given)
A498 renal
  TGI: > 100 µM
A549 NSCLC
  TGI: > 100 µM
ACHN renal
  TGI: > 100 µM
CCRF-CEM leukemia
  TGI: > 100 µM
DMS 273 small cell lung
  TGI: > 100 µM
EKVX NSCLC
  TGI: > 100 µM
HL-60(TB) leukemia
  TGI: > 100 µM
HOP-62 NSCLC
  TGI: > 100 µM
HOP-92 NSCLC
  TGI: > 100 µM
HT29 colon
  TGI: > 100 µM
IGROV1 ovarian
  TGI: > 100 µM
KM12 colon
  TGI: > 100 µM
M14 melanoma
  TGI: > 100 µM
M19-MEL melanoma
  TGI: > 100 µM
MOLT-4 leukemia
  TGI: > 100 µM
NCI-H23 lung
  TGI: > 100 µM
NCI-H460 lung
  TGI: > 100 µM
NCI-H522 lung
  TGI: > 100 µM
OVCAR-5 ovarian
  TGI: > 100 µM
OVCAR-8 ovarian
  TGI: > 100 µM
RXF 393 renal
  TGI: > 100 µM
SF-268 CNS
  TGI: > 100 µM
SF-295 CNS
  TGI: > 100 µM
SK-MEL-28 melanoma
  TGI: > 100 µM
SK-OV-3 ovarian
  TGI: > 100 µM
SNB-19 CNS
  TGI: > 100 µM
SNB-78 CNS
  TGI: > 100 µM
SR leukemia
  TGI: > 100 µM
TK-10 renal
  TGI: > 100 µM
U251 CNS
  TGI: > 100 µM
UACC-257 melanoma
  TGI: > 100 µM
UACC-62 melanoma
  TGI: > 100 µM
UO-31 renal
  TGI: > 100 µM
